This data set concerns Arion lusitanicus. Nature of the data set: Slug Mucosal Irritation (SMI) assay. It is filed as in vivo.

Procedure: The SMI assay uses slugs (Arion lusitanicus) as the test organism. The body wall of slugs consists of a mucosal surface comprising mucus secreting cells covering a sub epithelial connective tissue. Slugs that are placed on an irritant substance will actively produce mucus as a protective mechanism from noxious agents. Additionally, tissue damage of the slug's surface results in the release of proteins and enzymes. The protein concentration in the collected samples is determined with a protein quantitation kit.
The Slug Mucosal Irritation (SMI) assay was developed to predict the mucosal irritation potency of pharmaceutical formulations and ingredients. Briefly, the assay utilized the terrestrial slug Arion lusitanicus, whose body wall is a mucosal surface composed of different layers. The outer single-layered columnar epithelium contains cells with cilia, cells with microvilli, and mucus-secreting cells that cover the subepithelial connective tissue. […]
The method for testing the irritation potency of the formulations was evaluated by placing the slugs on 100 mg of the sample for 30 minutes daily for 3 successive days, and the amount of mucus produced was measured. […] The total mucus production (MP) percentage was calculated as a percent of the slug's body weight.

For Nonoxynol-9, the “Total MP (%)” value (100 mg, 30 minutes daily, 3 successive days, percent of slug body weight) amounted to 8.2 ± 1.2%. Also, the MIP entry (mucosal irritation potency class) is given as “high”.
